Laboratory results: publication PMC9400670, “Establishing the selective phospholipid membrane coordination, permeation and lysis properties for a series of ‘druggable’ supramolecular self-associating antimicrobial amphiphiles” (Chemical Science, 2022)
Converted amounts (≈) assume the structure as drawn. Read-outs that look alike come from different tables or passages of the source.

Tests used:
[1] = system: E. coli DH10B; conditions: cited from earlier work; for MIC50 E. coli: E. coli DH10B, n = 3, 0.5 McFarland standard, number in bracket = efficacy rank
[2] = system: PC nanodiscs; experiment: Phospholipid nanodisc 1H NMR CPMG coordination assay, PC nanodiscs; assay type: binding; conditions: SSA 100 µM
Excerpt: Finally, to establish how any single SSA structural variation affects the coordination of an individual salt component to the surface of a phospholipid membrane, the binding of the anionic and cationic components of SSAs 5–12 with nanodiscs comprised of PC, PG or the PE : PG mix (Table 2) was studied. Nanodiscs were synthesised from synthetic vesicles of the relevant phospholipid composition. For full synthetic procedures and nanodisc characterisation please see ESI (Section 13). ^†[34,35]
Styrene-maleic acid (SMA) nanodiscs are small biomimetic scaffolds with a hydrodynamic diameter ≈ 10 nm. They consist of a single disc-shaped planar phospholipid bilayer, ‘belted’ in this instance with a synthetic SMA co-polymer. Here nanodiscs of a specific phospholipid composition were titrated against a solution of SSAs 5–12 (0.10 mM) in a sodium phosphate buffer (20 mM) with NaCl (20 mM) at pH 7.4. This solution was supplemented with 5% D2O, to enable NMR locking and 4,4-dimethyl4-silapentane-1-sulfonic acid (DSS – 0.02 mM) to act as an internal standard. The nanodiscs were then titrated against the SSA, while the SSA concentration was maintained as constant, well below the CMC (Table 3).[38] A 1D ^1H NMR with a Carr–Purcell–Meiboom–Gill sequence (CPMG) filter (300 ms),[36,48] modified with a watergate element was then obtained for each experimental data point. The watergate element was used to allow suppression of the water signal, whereas the CPMG filter enabled the suppression of those resonances from molecular species with long correlation times, which in this instance correlate to the signals of those SSAs coordinated to the nanodisc, rather than those which exist as free species in solution. Comparative integration of the resonances corresponding to the SSA cation or anion, standardised against the DSS internal standard, permits the percentage of the individual SSA components coordinated to the phospholipid nanodisc to be established with respect to increasing nanodisc concentration.
However, when considering the 1/EC50 for the SSA cationic component (Fig. 10b), the reverse is true. This is perhaps expected, but nevertheless despite the identical experimental conditions, including the same TBA counter cation across SSAs 5–12, there is a marked difference in the 1/EC50 obtained, where the only difference is the SSA anion present. This is most noticeable for the series of SSA titrations involving the PE : PG mix (Table 2) nanodiscs. The only variation within this set of titrations is the structure of the SSA anion; we therefore conclude that the SSA anion is influencing SSA cation nanodisc coordination events. This observation provides evidence for the presence of further complex interactions informing SSA:nanodisc coordination processes. […]
Data were acquired in endpoint mode. All experiments were repeated in triplicate […]
Nanodisc preparation: Lipid films were resuspended in Buffer (20 mM NaCl, 20 mM NaH 2PO4, pH 7.4) and sonicated for 1 hour, at a 5:1 ratio, SMA was added and incubated at 37 °C for 1 hour. Dialysed overnight in 5 L of the same buffer in 10 KDa cut-off dialysis tubing, concentrated, and underwent gel filtration size exclusion chromatography on a Superdex 200 10/300 GL column (GE Healthcare) in the same buffer, whilst monitoring absorbance at 260 nm. Nanodisc quantification carried out via monitoring of absorbance at 260 nm using a calibration curve.2
1H NMR CPMG: 1H NMR CPMG3,4 spectra were obtained with a Bruker Avance III […] spectrometer equipped with a TCIP cryoprobe at 298 K. Samples were supplemented with 5 % D 2O and 0.02 mM 4,4-dimethyl4-silapentane-1-sulfonic acid (DSS). The standard zgprcpmg pulse sequence from the Bruker library was modified with a watergate element to allow suppressi on of the water signal and was used for all experiments. Although this sequence is readily obtainable, we are happy to provide it on request. The P1 pulses were 9 µs at a power of 7.9 W. Presaturation was applied between […]

[3] = system: MRSA USA300; experiment: MIC50 determination and initial screening from OD600 growth curves, MRSA USA300; assay type: cell-based, Staphylococcus aureus
Excerpt: The antimicrobial activity of SSAs 1–14 was established against both a model Gram-positive, clinically relevant methicillin resistant Staphylococcus aureus (MRSA), and a model Gram-negative, E. coli bacteria, Table 1. Here MIC50 values are given in mM to enable the derivation of molecular structure: antimicrobial efficacy: physical property relationships. […]
Data were acquired in endpoint mode. […]
Section 3: Microbial Methods
These methods were taken directly from UK Health and Security Office (UKHSA) standard operating […]
Preparation of Luria Broth media (LB): Yeast extract (5 g), tryptone (10 g) and sodium chloride (10 g) were dissolved in dH₂O (1 L) then divided into bottles and autoclaved.
Preparation of Luria Broth (LB) agar plates: Agar (6 g) was added to LB (400 mL) and autoclaved. Once cool, the LB agar was poured into sterile petri dishes under sterile conditions and allowed to set. LB plates were stored at 4 °C until use.
Preparation of bacterial plates: Sterile LB agar plates were streaked using Escherichia coli DH10B or USA300 Methicillin-Resistant Staphylococcus aureus then incubated at 37 °C overnight.
Preparation of Inoculum: An initial culture was made up by inoculating LB media (5 mL) with a single colony of bacteria under sterile conditions and incubated at 37 °C with shaking overnight. The following day, overnight bacterial cultures were subcultured into fresh LB medium to a starting OD600 […]
Preparation of 96 well microplate for screening: 20 mM solutions of each compound to be tested were made up using 5 % ethanol. The 1:100 cell suspension (150 µL) was pipetted into the wells and SSA compound solutions (30 µL) were added into each well. The final screening concentration for each compound was 3.3 mM in the well. These were incubated for 20 hours in a plate reader, with optical density readings being taken at 600 nm every 15 minutes. Optical density readings were plotted against time to produce growth curves. […]
individual wells under sterile conditions. Compounds (30 µL) were added to the wells to equal a total volume of 180 µL in the wells. Six repeats of each concentration for each compound were created each plate. The plates were sealed using parafilm, then incubated at 37°C in a microplate reader for 18-25 hours. Optical density readings were taken at 600 nm every 15 min. Data was used to generate […]
Calculation of MIC50: Growth curves were plotted using OD600 optical density readings in Microsoft ® Excel ® 2013. OD600 optical density readings 900 minutes from the start of each of these growth cultures for each concentration of compound were plotted in Origin ® 2015. The resultant curve was normalized and fitted using the Boltzmann fit to define the MIC50 values for each compound.

[4] = concentration of nanodisc coordinating 50 % of the SSA anion, Hill Plot fit, Vmax fixed 100 %, read-out: EC50 PC, anionic SSA component
[5] = experimental endpoint 4.00 µM nanodisc, read-out: EC50 PC, cationic SSA component
[6] = Staphylococcus aureus, 15 h, MRSA USA300, n = 3, 0.5 McFarland standard, after 900 min, number in bracket = efficacy rank, SSA 11 estimated due to data quality
[7] = Staphylococcus aureus, 15 h, Table S3, conversion of the mM values of Table 1, MRSA USA300, after 900 mins

| Structure (SMILES) | EC50 [2, 4] [nM] | MIC50 [3, 6] [µM] | MIC50 [3, 7] [µg/mL] | MIC50 E. coli ([1]; after 900 min) | further results |
| --- | --- | --- | --- | --- | --- |
| O=C(NCCCS(=O)(=O)O)Nc1ccc(C(F)(F)F)cc1 [SSA 2] |  |  |  | 1.48(3) mM |  |
| Cc1ccc2nc(-c3ccc(NC(=O)NCCC(=O)O)cc3)sc2c1 [SSA 9] | 270 | 1200 | 760 |  | EC50 [2, 5]: > 4000 nM |
| Cc1ccc2nc(-c3ccc(NC(=O)NCCCS(=O)(=O)O)cc3)sc2c1 [SSA 10] | 360 | 590 | 382 |  | EC50 [2, 5]: > 4000 nM |
| Cc1ccc2nc(-c3ccc(NC(=O)NCC(=O)O)cc3)sc2c1 [SSA 11] | 490 | 310 to 630 | 181 to 367 |  |  |
| O=C(NCS(=O)(=O)O)Nc1ccc(C(F)(F)F)cc1 [SSA 3] |  |  |  |  | initial antimicrobial screening, inhibition of growth, E. coli ([1]; 3.3 mM, after 900 min): ^c (SSA did not pass initial antimicrobial screening, exhibited <10% inhibition of growth at 3.3 mM after 900 min and therefore excluded from further study); initial antimicrobial screening outcome, E. coli ([1]; Table S3, screening at 3.3 mM): Fail; MIC50 MRSA ([3]; Table S3, conversion of the mM values of Table 1, MRSA USA300, after 900 mins): 132 µg/mL (≈ 443 µM) |
| Cc1ccc2nc(NC(=O)NCS(=O)(=O)O)sc2c1 [SSA 7] |  |  |  |  | inhibition at 3300 µM ([3]; Staphylococcus aureus, 15 h, 3.3 mM, after 900 min, read-out: initial antimicrobial screening, inhibition of growth, MRSA): < 10%; initial antimicrobial screening outcome, MRSA ([3]; Table S3, screening at 3.3 mM): Fail |
| O=C(O)CNC(=O)Nc1ccc(C(F)(F)F)cc1 [SSA 4] |  |  | 574 | 1.25(2) mM |  |
| O=C(NCS(=O)(=O)O)Nc1ccc(C(F)(F)F)cc1 [SSA 1] |  |  | 248 | 3.85(7) mM |  |

Further lines, with some results ahead:

| EC50 [2, 4] [nM] | MIC50 [3, 6] [µM] | MIC50 [3, 7] [µg/mL] | Structure (SMILES) | MIC50 E. coli ([1]; after 900 min) | further results |
| --- | --- | --- | --- | --- | --- |
| 140 |  |  | Cc1ccc2nc(-c3ccc(NC(=S)NCS(=O)(=O)O)cc3)sc2c1 [SSA 12] |  | EC50 ([2]; concentration of nanodisc coordinating 50 % of the SSA cation, Hill Plot fit, Vmax fixed 100 %, read-out: EC50 PC, cationic SSA component): 2240 nM |
|  |  | 599 | O=C(NCS(=O)(=O)O)Nc1ccccc1-c1nc2ccccc2s1 [SSA 5] | 3.57(5) mM |  |
| 360 |  | 576 | Cc1ccc2nc(-c3ccc(NC(=O)NCS(=O)(=O)O)cc3)sc2c1 [SSA 6] | 5.02(8) mM |  |
| 2660 | 1150 | 696 | O=C(NCS(=O)(=O)O)Nc1ccc(-c2nc3ccccc3s2)cc1 [SSA 8] |  |  |
